Experimental data: patent publication US20210147472A1, “SOLID FORMS AND FORMULATIONS COMPRISING A GLUCOCORTICOID RECEPTOR ANTAGONIST AND USES THEREOF” (ORIC Pharmaceuticals, Inc., priority 2018, published 2021)
In brackets after ≈: the same amount, converted by molar mass.

Columns and labels:
Type in all cases: physicochemical
[1] = Solubility of Compound 1 (freebase form) in dosing vehicles, HPLC; settings: shaken five days, 25° C. (40° C. semi-solid, 50° C. solid vehicles)
Protocol: This study was carried out to evaluate the solubility of Compound 1 (freebase form) in a variety of dosing vehicles to identify excipient classes that maximize drug solubility. A total of 20 vehicles which were selected and agreed with the customer were used in this study. Compound 1 was added to approximately 1 gram of the excipients. After the initial addition of Compound 1, the mixtures were shaken in a temperature-controlled vortex mixer at 25° C. (40° C. for vehicles that were semi-solid at room temperature and 50° C. for solid vehicles) then examined for solid residues. If dissolution was observed during the mixing time, additional Compound 1 was added until no further dissolution was observed. After shaking for a total of five days, the suspensions were filtered using a centrifuge tube with 0.45 PVDF membrane filter (Millipore Durapore®). The filtrate was weighed in to a 25-mL volumetric flask and diluted to volume with the diluent solution (90:10% v/v IPA/Acetonitrile) for a determination of Compound 1 concentration via High Performance Liquid Chromatography (HPLC). Residual solids were inspected by PXRD to determine the solid form. Quantitative determination of the amount of API dissolved was performed using reverse-phase HPLC analyses on an Agilent 1290 Infinity II UHPLC system equipped with a Diode Array Detector (DAD). Agilent 1290 Infinity II UHPLC system equipped with a Diode Array Detector (DAD) Mobile Phase A: 0.05% Formic acid in water Mobile Phase B: 0.05% Formic acid in acetonitrile

[2] = Effect of stabilizers on stability of Compound 1 capsule matrix (A1 formation)
Protocol: Two antioxidants, α-tocopherol and ascorbyl palmitate, were evaluated to minimize the oxidation. Use of α-tocopherol alone improved Compound 1 stability as measured by the formation of A1 (see Table 1). When ascorbyl palmitate was combined with α-tocopherol, further stability improvement was observed. Table 14 summarizes the compositions of the Compound 1 capsule matrix evaluated and Table 15 summarizes the effect of α-tocopherol and ascorbyl palmitate as stabilizers on the stability of Compound 1.

[3] = Solubility screen of Compound 1 in lipids; settings: oil or lipid

Q: Which Solubility ([1]; in Caprylocaproyl polyoxyl-8 glycerides) does the source give for CC(C)N(C)c1ccc([C@H]2C[C@@]3(C)[C@@H](CC[C@@]3(O)C#CC(C)(C)C)[C@@H]3CCC4=CC(=O)CC[C@@H]4[C@H]32)cc1 [Compound 1, (8R,9S,10R,11S,13S,14S,17S)-17-(3,3-dimethylbut-1-yn-1-yl)-17-hydroxy-11-(4-(isopropyl(methyl)amino)phenyl)-13-methyl-1,2,6,7,8,9,10,11,12,13,14,15,16,17-tetradecahydro-3H-cyclopenta[a]phenanthren-3-one] here?
A: The Solubility was 42.4 mg/g.

Q: What about the Solubility ([1]; in Decanoic acid (Capric acid)) of the same compound?
A: Its Solubility is 201.0 mg/g.

Q: What about the Solubility ([1]; in Diethyl glycol monoethyl ether) of the same compound?
A: The Solubility was 130.3 mg/g.

Q: What about the Solubility ([1]; in Glycerin) of the same compound?
A: Its Solubility is 0.1 mg/g.

Q: What about the Solubility ([1]; in Glyceryl caprylate/caprate) of the same compound?
A: Its Solubility is 79.0 mg/g.

Q: And the Solubility ([1]; in Glyceryl monolinoleate)?
A: Its Solubility is 41.2 mg/g.

Q: And the Solubility ([1]; in Lauroyl polyoxyl-6 glycerides)?
A: The Solubility was 40.8 mg/g.

Q: And the Solubility ([1]; in Lauroyl polyoxyl-32 glycerides)?
A: The Solubility was 39.2 mg/g.

Q: And the Solubility ([1]; in Medium chain triglycerides)?
A: The Solubility was 26.1 mg/g.

Q: What about the Solubility ([1]; in Octanoic acid (Caprylic acid)) of the same compound?
A: The Solubility was 199.2 mg/g.

Q: And the Solubility ([1]; in PEG 400)?
A: Its Solubility is 14.5 mg/g.

Q: And the Solubility ([1]; in Polyethylene glycol monostearate)?
A: Its Solubility is 34.2 mg/g.

Q: What about the Solubility ([1]; in Polyethylene glycol sorbitan monolaurate) of the same compound?
A: The Solubility was 26.1 mg/g.

Q: And the Solubility ([1]; in Propylene Glycol)?
A: Its Solubility is 12.1 mg/g.

Q: And the Solubility ([1]; in Propylene glycol monocaprylate)?
A: The Solubility was 139.6 mg/g.

Q: And the Solubility ([1]; in Propylene glycol monolaurate)?
A: The Solubility was 68.4 mg/g.

Q: And the Solubility ([1]; in Sorbitan Monolaurate)?
A: The Solubility was 34.1 mg/g.

Q: And the Solubility ([1]; in Sorbitan monooleate)?
A: The Solubility was 19.5 mg/g.

Q: What about the Solubility ([1]; in Triacetin) of the same compound?
A: Its Solubility is 21.9 mg/g.

Q: And the Solubility ([1]; in Vitamin E TPGS)?
A: The Solubility was 8.3 mg/g.

Q: And the “Formation of A1” value ([2]; combination of α-tocopherol and ascorbyl palmitate as stabilizers)?
A: The value was “substantially suppresses”.

Q: And the “Formation of primary oxidative N-demethylation product (A1)” value ([2]; in caprylic acid, extended stability, after about 4-6m)?
A: Its value is “greater than 4%”.

Q: And the “Compound 1 stability as measured by the formation of A1” value ([2]; use of α-tocopherol alone)?
A: Its value is “improved”.

Q: And the Solubility ([3]; in Capmul MCM (Glyceryl monocaprylcaprate, Type I, NF))?
A: The Solubility was less than 40 mg/mL.

Q: And the Solubility ([3]; in Capryol 90 (Propylene glycol monocaprylate, Type II, NF))?
A: The Solubility was 40 mg/mL (≈ 79.7 mM).

Q: And the Solubility ([3]; in Capryol 90 + 5% Poloxamer P188 USP, particulate seen after 24 hours)?
A: Its Solubility is 50 mg/mL.

Q: What about the Solubility ([3]; in Kolliphor EL (PEG-35 Castor Oil USP)) of the same compound?
A: The Solubility was less than 40 mg/mL.

Q: What about the Solubility ([3]; in Labrasol ALF (Caprylocaproyl Polyoyl-8 glycerides, NF)) of the same compound?
A: The Solubility was 40 mg/mL (≈ 79.7 mM).

Q: What about the Solubility ([3]; in Maisine CC (Caprylic/capric triglyceride NF)) of the same compound?
A: Its Solubility is less than 40 mg/mL.

Q: What about the Solubility ([3]; in Tween 20 (Polysorbate 20 NF)) of the same compound?
A: The Solubility was less than 40 mg/mL.

Q: And the Solubility ([3]; in Tween 80 (polysorbate 80 NF))?
A: The Solubility was less than 40 mg/mL.
